Patent US20260199212A1, “USE OF L-CARNOSINE AGAINST SOLAR ELASTOSIS” (SYMRISE AG, priority 2022, published 2026)

Tests used:
tropoelastin = experiment: Tropoelastin immunostaining in the papillary dermis of skin explants, semi-quantified by image analysis; format: cell-based, human; details: when applying L-Carnosine
Experimental: (§1) Human skin explants of an average diameter of 12 mm (+1 mm) were prepared on an abdo-plasty coming from a person with a phototype II according to Fitz-patrick skin colour classification. The explants were kept in survival in BEM culture medium (BIO-EC's Explants Medium) at 37° C. in a humid, 5%-CO2 atmosphere.
(§2) Compositions A and B were applied at the rate of 2 μL per 1 cm^2 skin sample (~2 mg/cm^2) and spread using a small spatula on day 0, day 1, day 2, day 3 and day 6 (30 min before infrared irradiation exposure). […] The culture medium was half renewed (1 ml per well) on day 2, day 3 and day 6.
(§3) On day 6, the culture media of all the batches was replaced by HBSS (Hank's Balanced Saline Solution; 1 ml per explant). The batches IR, IR-C2, and IR-T were irradiated using a infrared lamp (Dr FISCHER 1000W, 235V 2500K; 760-3000 nm), for 1:24 h (720 J/cm^2; 140 mW/cm^2). The non-irradiated batches were kept in HBSS in the dark. […]
Nuclei have been post stained with propidium iodide. The staining was assessed by microscopical observation and semi-quantified by image analysis. […]
Tropoelastin immunostaining was assessed by microscopical observation of skin sections with semi-quantification by image analysis using the software cellSens (Olympus).
(§4) Analysed zone: ROI including the papillary dermis.
(§5) Number of analysed images per batch: 9. […]

fibrillin-1 = experiment: Fibrillin-1 immunostaining in the papillary dermis of skin explants, semi-quantified by image analysis; format: cell-based, human; details: after infrared irradiation
Experimental: as §1, §2, §3
Nuclei have been post-stained with propidium iodide. The staining was assessed by microscopical observation and semi-quantified by image analysis. […]
Fibrillin-1 immunostaining was assessed by microscopical observation of skin sections with semi-quantification by image analysis using the software cellSens (Olympus).
as §4, §5

For `NCCC(=O)N[C@@H](Cc1cnc[nH]1)C(=O)O` [L-Carnosine], the “amounts of elastin after infrared irradiation versus without infrared irradiation” value (tropoelastin) was “not significantly different” and the “amount of fibrillin-1 in the dermis” value (fibrillin-1) was “strongly increase”.
